# According to US10383835B2, “Treatment of inflammatory disorders in non-human mammals” (The Regents of the University of California, priority 2012, dated 2019):
# Legend:
# Canine sEH = Canine sEH (Canis lupus familiaris, UniProt A0A8I3NJL8); test: sEH Inhibitor Screen of Canine sEH; format: biochemical; conditions: [I] = 100 nM
# [1] = test system: horse with pain due to laminitis; test: Pain (VAS) and blood pressure in one horse with naturally occurring laminitis, multimodal analgesic therapy; format: in vivo; conditions: before t-TUCB; phenylbutazone 4 mg/kg twice daily PO, gabapentin 20 mg/kg twice daily PO
# COX-2 = COX-2 (Equus caballus (Horse), UniProt O19183); conditions: read-out: 80% maximal inhibitory concentration (IC80) against COX-2; cited from earlier work
# [2] = parameters: species or system horse; conditions: in vivo
# in vivo = conditions: Thoroughbred, horse, iv, 0.1 mg/kg
# sEH = sEH (Homo sapiens (Human), UniProt P34913); test: Activity as inhibitor of sEH (standard assays); format: biochemical
# From the text: Derivatives of urea are transition state mimetics that form a preferred group of sEH inhibitors. […] Any particular urea derivative or other compound can be easily tested for its ability to inhibit sEH by standard assays, such as those discussed herein. The production and testing of urea and carbamate derivatives as sEH inhibitors is set forth in detail in, for example, Morisseau et al., Proc Natl Acad Sci (USA) 96:8849-8854 (1999).
# One category of these inhibitors comprises inhibitors that mimic the substrate for the enzyme. The lipid alkoxides (e.g., the 9-methoxide of stearic acid) are an exemplar of this group of inhibitors.
# COX-2 / COX-1 = conditions: cited from earlier work
# [3] = human volunteers; cited from earlier work
# [4] = Plasma concentrations and pharmacokinetics in the laminitic horse; conditions: gabapentin 20 mg/kg BID PO
# Sequence of Canine sEH (A0A8I3NJL8 1-556): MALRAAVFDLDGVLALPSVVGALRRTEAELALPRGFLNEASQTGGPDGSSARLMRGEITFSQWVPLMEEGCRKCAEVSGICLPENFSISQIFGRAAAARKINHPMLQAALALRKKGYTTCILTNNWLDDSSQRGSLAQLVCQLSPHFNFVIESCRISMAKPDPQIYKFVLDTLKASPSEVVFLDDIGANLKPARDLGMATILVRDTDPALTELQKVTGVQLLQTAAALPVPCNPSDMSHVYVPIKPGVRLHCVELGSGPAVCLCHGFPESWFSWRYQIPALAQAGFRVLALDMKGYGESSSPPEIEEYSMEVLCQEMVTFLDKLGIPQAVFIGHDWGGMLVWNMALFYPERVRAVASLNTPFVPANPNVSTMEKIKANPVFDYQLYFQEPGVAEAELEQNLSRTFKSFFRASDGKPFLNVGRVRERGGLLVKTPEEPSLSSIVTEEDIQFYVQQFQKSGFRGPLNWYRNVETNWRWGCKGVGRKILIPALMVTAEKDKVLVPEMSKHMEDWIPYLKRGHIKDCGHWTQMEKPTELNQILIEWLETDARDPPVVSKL
# Sequence of sEH (P34913 whole entry): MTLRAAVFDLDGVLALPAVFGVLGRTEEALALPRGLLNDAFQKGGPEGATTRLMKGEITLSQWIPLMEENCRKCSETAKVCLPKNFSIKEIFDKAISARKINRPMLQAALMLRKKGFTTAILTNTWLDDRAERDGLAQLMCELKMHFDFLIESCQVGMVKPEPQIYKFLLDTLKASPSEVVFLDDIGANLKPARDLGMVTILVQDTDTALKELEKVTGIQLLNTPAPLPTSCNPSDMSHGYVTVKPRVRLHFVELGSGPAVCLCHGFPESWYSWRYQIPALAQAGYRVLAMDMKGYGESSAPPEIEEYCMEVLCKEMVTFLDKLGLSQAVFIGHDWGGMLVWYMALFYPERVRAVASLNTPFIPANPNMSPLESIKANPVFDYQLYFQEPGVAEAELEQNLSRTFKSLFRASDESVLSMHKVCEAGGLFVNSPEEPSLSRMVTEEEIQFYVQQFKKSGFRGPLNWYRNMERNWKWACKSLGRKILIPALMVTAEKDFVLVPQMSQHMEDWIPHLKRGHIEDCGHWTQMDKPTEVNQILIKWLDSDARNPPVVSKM
# Sequence of COX-2 (O19183 18-604): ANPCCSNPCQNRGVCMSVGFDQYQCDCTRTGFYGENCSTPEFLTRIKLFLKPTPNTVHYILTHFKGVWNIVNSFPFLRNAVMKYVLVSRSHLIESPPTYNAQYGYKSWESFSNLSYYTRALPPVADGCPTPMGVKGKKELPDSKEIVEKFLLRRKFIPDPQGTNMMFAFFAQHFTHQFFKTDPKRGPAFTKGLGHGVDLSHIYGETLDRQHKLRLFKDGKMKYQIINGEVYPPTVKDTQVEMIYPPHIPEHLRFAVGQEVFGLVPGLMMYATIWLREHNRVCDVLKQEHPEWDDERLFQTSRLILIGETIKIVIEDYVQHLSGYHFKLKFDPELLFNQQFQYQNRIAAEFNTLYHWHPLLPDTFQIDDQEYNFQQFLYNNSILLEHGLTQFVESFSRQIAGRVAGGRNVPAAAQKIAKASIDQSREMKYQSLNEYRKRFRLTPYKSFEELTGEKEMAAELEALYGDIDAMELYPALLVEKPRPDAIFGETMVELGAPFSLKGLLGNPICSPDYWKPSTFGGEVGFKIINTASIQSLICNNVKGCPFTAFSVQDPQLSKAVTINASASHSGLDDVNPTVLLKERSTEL
structure (smiles),measurement,setting,value
"O=C(Nc1ccc(Oc2ccc(C(=O)O)cc2)cc1)Nc1ccc(OC(F)(F)F)cc1 [compound 2803, 4-(4-(3-(4-(trifluoromethoxy)-phenyl)-ureido)-phenoxy)-benzoic acid]",inhibition at 0.1 µM,Canine sEH,82%
"COC(=O)c1ccc(NC2CCC(NC(=O)Nc3ccc(OC(F)(F)F)cc3)CC2)cc1 (stereo not shown) [compound 2804, methyl 4-(4-(3-(4-(trifluoromethoxy)-phenyl)-ureido)-cyclohexylamino)-benzoate]",inhibition at 0.1 µM,Canine sEH,49%
CCCCC1C(=O)N(c2ccccc2)N(c2ccccc2)C1=O [phenylbutazone],response of laminitis pain to therapy,[1],refractory
same,IC80,COX-2,~23 µM
"CS(=O)(=O)NC(=O)c1ccc(O[C@H]2CC[C@H](NC(=O)Nc3ccc(OC(F)(F)F)cc3)CC2)cc1 [compound 2728, N-(methylsulfonyl)-4-(trans-4-(3-(4-trifluoromethoxy-phenyl)-ureido)-cyclohexyloxy)-benzamide]",inhibition at 0.1 µM,Canine sEH,84%
"O=C1CCC(NC(=O)Nc2ccc(OC(F)(F)F)cc2)CC1 [compound 2809, 1-(4-oxocyclohexyl)-3-(4-(trifluoromethoxy)-phenyl)-urea]",inhibition at 0.1 µM,Canine sEH,51%
"O=C(Nc1ccc(OC(F)(F)F)cc1)N[C@H]1CC[C@H](Oc2ccc(C(=O)O)cc2)CC1 [compound 1728, trans-4-{4-[3-(4-Trifluoromethoxy-phenyl)-ureido]-cyclohexyloxy}-benzoic acid]",Anisocytosis,[2],Slight
same,Bilirubin Direct,[2],0.1 mg/dL
same,Creatinine,[2],1.1 mg/dL
same,Echinocytes,[2],Few
same,GGT,[2],11 IU L^−1
same,SDH-37,[2],0 IU L^−1
same,half-life,in vivo,29.8 h
"O=C(Nc1ccc(OC(F)F)cc1)N[C@H]1CC[C@H](Oc2ccc(C(=O)O)cc2)CC1 [compound 2805, 4-(trans-4-(3-(4-(difluoromethoxy)-phenyl)-ureido)-cyclohexyloxy)-benzoic acid]",inhibition at 0.1 µM,Canine sEH,95%
"CCCCCCCCCCCCNC(=O)NC12CC3CC(CC(C3)C1)C2 [ADU, N-Adamantyl-N′-dodecyl urea]",activity as an inhibitor of sEH,sEH,particularly high activity on sEH
"O=C(Nc1ccc(OC(F)(F)F)cc1)NC1CCC(Oc2ncccn2)CC1 (stereo not shown) [compound 2810, 1-(4-(pyrimidin-2-yloxy)-cyclohexyl)-3-(4-(trifluoromethoxy)-phenyl)-urea]",inhibition at 0.1 µM,Canine sEH,52%
CC(=O)Oc1ccccc1C(=O)O [Aspirin],COX-2 (IC50)/COX-1 (IC50) ratio,COX-2 / COX-1,0.32
"Cc1oc(=O)oc1COC(=O)c1ccc(O[C@H]2CC[C@H](NC(=O)Nc3ccc(OC(F)(F)F)cc3)CC2)cc1 [compound 2796, (5-methyl-2-oxo-1,3-dioxol-4-yl)methyl 4-((1r,4r)-4-(3-(4-(trifluoromethoxy)-phenyl)-ureido)-cyclohexyloxy)-benzoate]",inhibition at 0.1 µM,Canine sEH,84%
"O=C(Nc1ccc(OC(F)(F)F)cc1)Nc1ccc(Oc2ccc(C(=O)O)cc2)cc1F [compound 2807, 4-(3-fluoro-4-(3-(4-(trifluoromethoxy)-phenyl)-ureido)-phenoxy)-benzoic acid]",inhibition at 0.1 µM,Canine sEH,95%
COc1ccc2c(c1)c(CC(=O)O)c(C)n2C(=O)c1ccc(Cl)cc1 [indomethacin],COX-2 (IC50)/COX-1 (IC50) ratio,COX-2 / COX-1,33
"O=C(Nc1ccccc1F)N[C@H]1CC[C@H](Oc2ccc(C(=O)O)cc2)CC1 [compound 2736, 4-(trans-4-(3-(2-fluorophenyl)-ureido)-cyclohexyloxy)-benzoic acid]",inhibition at 0.1 µM,Canine sEH,80%
"O=C(Nc1ccc(OC(F)(F)F)cc1)N[C@H]1CC[C@H](Oc2ccc(C(=O)NO)cc2)CC1 [compound 2761, N-hydroxy-4-(trans-4-(3-(4-(trifluoromethoxy)-phenyl)-ureido)-cyclohexyloxy)-benzamide]",inhibition at 0.1 µM,Canine sEH,72%
"O=C(O)CNC(=O)c1ccc(O[C@H]2CC[C@H](NC(=O)Nc3ccc(OC(F)(F)F)cc3)CC2)cc1 [compound 2283, trans-2-(4-(4-(3-(4-trifluoromethoxy-phenyl)-ureido)-cyclohexyloxy)-benzamido)-acetic acid]",inhibition at 0.1 µM,Canine sEH,64%
NCC1(CC(=O)O)CCCCC1 [gabapentin],plasma concentration associated with analgesia,[3],~18 µM
same,response of laminitis pain to therapy,[1],refractory
same,lowest measured plasma concentration,[4],1 µM
same,highest measured plasma concentration,[4]; first sampling five hours after dosing,18 µM
"O=C(Nc1ccc(OC(F)(F)F)cc1)N[C@H]1CC[C@H](Oc2ccc(-c3nnn[nH]3)cc2)CC1 [compound 2806, 1-(trans-4-(4-(1H-tetrazol-5-yl)-phenoxy)-cyclohexyl)-3-(4-(trifluoromethoxy)-phenyl)-urea]",inhibition at 0.1 µM,Canine sEH,99%
